Several values for one entry are separate records, joined by “and”; a condition that tells them apart may be missing. Equal values may be shown once. Entries after “also recorded” stand apart in the source; their conditions may differ.
Legend:
[1] = tested on: prostate-specific antigen (PSA); assay: Western blot of LNCaP cell lysates, PSA; type: cell-based, human; details: 1 or 2 micromolar, 24 hours, presence or absence of DHT
Method: (§1) Human prostate cancer LNCaP cells and T47D cells were plated at a density of 7×10^5 cells per 60 millimeter tissue culture dish in […] (RPMI) medium containing 10% FBS. The medium was changed to RPMI or DME medium containing 10% charcoal-stripped serum 24 hours later to deplete cellular androgens or estrogens. After another 24 hours, treatment with the test compounds began. The test dose of JC15 was 1 or 2 micromolar and the test does of JC9 was 1, 5 and 10 micromolar. LNCap cells also received dihydrotestosterone (DHT) (3 nanomolar). Control cells received a corresponding amount of the vehicle, dimethylsulfoxide (DMSO) (<0.04%) for an equivalent exposure time. Cells were incubated with JC15 for 24 or 48 hours, and were lysed in 250 microliters of 1×SDS/PAGE loading buffer. Approximately 40 micrograms of total cellular protein was loaded in each lane of a pre-cast gel (NuPAGE, Invitrogen). Protein separation and transfer were performed following the manufacturer's instructions.
(§2) For the prostate cell lysates, androgen receptor (AR) protein was visualized by incubating the resultant membranes with an anti-AR antibody (BD-PharMingen), followed by chemiluminescence detection (ECL Plus, Amersham). […] The resultant protein signals were quantified using densitometry and NIH ImageJ software.

[2] = tested on: acne vulgaris; assay: Topical treatment of acne in human volunteers; type: in vivo; details: for Recovery Time: topical cream, per subject
Method: In this example, human subjects were successfully treated for acne by topical administration of a cream containing the compound JC15 or JC9, which were shown in the previous examples to ameliorate the effects of the androgen receptor-activated pathway, specifically by inducing degradation of the androgen receptor. A basic carrier formulation was prepared by mixing two solutions: (1) a water-based solution containing aristoflex avc, Osmocide, Tween 20, and water; and (2) an oil-based solution containing isopropyl myristate, coconut dienthanolamine, ethylparaben, isobutylparaben, methylparaben, and propylparaben. The test compounds (JC15 or JC9) were added to the cream to a final concentration of 1 to 2.5 micromolar, as needed.
Male and female human volunteers ranging in age from 15 years to 52 years were treated by topical application of the test compounds to the acne-affected skin. […] The results are given in Table 1, and a representative result (photo pictures) from one volunteer is depicted in FIG. 7.

[3] = tested on: hsp70; assay: Western blot of LNCaP cell lysates, hsp70; type: cell-based, human; details: 1 or 2 micromolar, 24 hours, presence or absence of DHT
Method: as §1, §2

[4] = tested on: sebaceous glands; assay: Reduction of sebaceous glands in Fuzzy rats by topical cream; type: in vivo; details: once daily; for size of the sebaceous glandular lobe and duct: male Fuzzy rats, 8 weeks
Source text: In this example, the test compounds JC15 and JC9, which were shown in the previous examples to ameliorate the effects of the androgen receptor-activated pathway, specifically by inducing degradation of the androgen receptor, and to be effective in treating acne in human subjects, were used to reduce sebaceous glandular lobe size in an animal model. Effective reduction of sebaceous glands by topical treatment may be useful in treating skin conditions such as acne. Fuzzy rats were used in this animal model as described in Ye et al. (1997) Skin Pharmacol., 10:10288-10297, which is incorporated by reference in its entirety herein.
Topical creams were prepared as described in EXAMPLE 6. The test creams contained JC9 ([…]) or JC15 (1 micromolar); a control cream with only vehicle added was also prepared. The test or control creams were applied using a cotton swab to the dorsal skin of the animal, once daily, over a period of 8 weeks. Animals were then sacrificed and skin samples collected for microscopic examination. Commercial hair remover was applied to the dorsal surface of the euthanized animals. After 5 minutes, the hair remover and hairs were removed with a tissue. The area was thoroughly cleaned with 75% isopropyl alcohol. A 4-millimeter skin punch was used to remove skin tissue samples, which were incubated for 2 to 3 hours in a ethylenediaminetetraacetate (EDTA, 17 millimolar), sodium phosphate (0.1 molar, pH 7.4) solution at 37 degrees Celsius. The epidermis was carefully separated from the dermis and stored in 10% phosphate-buffered formalin. Prior to microscopic examination, the samples were mounted on glass slides. Areas of well-preserved glandular lobules were selected for microscopic imaging. Edges of the glandular lobes were traced and the areas of the traced lobes obtained with Image J software (National Institutes of Health).

In the case of CCOC(=O)CCC(C(=O)C=Cc1ccc(O)c(OC)c1)C(=O)C=Cc1ccc(O)c(OC)c1 (centres unmarked) [JC15, 7-(4-hydroxy-3-methoxyphenyl)-4-[3-(4-hydroxy-3-methoxyphenyl)acryloyl]-5-oxo-hept-6-enoic acid ethyl ester], the PSA levels [1] is reported as “decreased”, the “skin condition of forehead (photographs)” value ([2]; JC15 1 micromolar in carrier base, acne-affected volunteer, one month topical treatment) is reported as “visible improvement to skin condition” and the “Recovery Time” value ([2]; 1 micromolar, as often as needed, listed as ASCJ15) is reported as 1 week weeks (2×) and 2 weeks. The “Recovery Time” value ([2]; 1 micromolar, twice a day, listed as ASCJ15) was 2 weeks (2×) and 1 week weeks, the “cellular concentration of hsp70” value [3] was “did not substantially affect” and the “size of the sebaceous glandular lobe and duct” value ([4]; JC15 1 micromolar cream) was “reduction in the size of the sebaceous glandular lobe and duct; also recorded: approximately equivalent to the decrease caused by castration”.
COc1ccc(C=CC(=O)C=C(O)C=Cc2ccc(OC)c(OC)c2)cc1OC [JC9, 5-hydroxy-1,7-bis(3,4-dimethoxyphenyl)-1,4,6-heptatrien-3-one] was tested, and the “Recovery Time” value ([2]; 1 micromolar, four times a day) was 1 week, the “Recovery Time” value ([2]; 1 micromolar, twice a day) was 2 weeks and the “Recovery Time” value ([2]; 2.5 micromolar, twice a day) was 1 week. For the same molecule, the “time within which bands of sebaceous glands were reduced” value ([4]; JC9 25 micromolar cream, topical) was 4-5 weeks and the “size of the sebaceous glandular lobe and duct” value ([4]; JC9 25 micromolar cream) was “reduction in the size of the sebaceous glandular lobe and duct; also recorded: significantly reduced the size of lobe and ducts of sebaceous glands”.

— patent US20060084704A1, “Methods and compositions for enhancing degradation of nuclear receptor transcription factors and uses thereof” (priority 2004, published 2006)
